Patent publication US8492371B2, “Compounds as cannabinoid receptor ligands” (priority 2009, dated 2013)
Like-named read-outs stand apart in the source and are kept apart here.

Columns and labels:
human CB2 receptors = biological target: T1, human CB2 receptors (Homo sapiens, UniProt P34972); assay: Human CB2 radioligand binding assay ([3H]CP-55,940 competition)
T1 construct: expressed in transfected cells; host or cells: HEK293
Description: The CB1 and CB2 radioligand binding assays described herein are utilized to determine the selectivity of compounds of the present invention for binding to CB2 relative to CB1 receptors.
(§1) HEK293 cells stably expressing human CB2 receptors were grown until a confluent monolayer was formed. Briefly, the cells were harvested and homogenized in TE buffer (50 mM Tris-HCl, 1 mM MgCl2, and 1 mM EDTA) using a polytron for 2×10 second bursts in the presence of protease inhibitors, followed by centrifugation at 45,000×g for 20 minutes. The final membrane pellet was re-homogenized in storage buffer (50 mM Tris-HCl, 1 mM MgCl2, and 1 mM EDTA and 10% sucrose) and frozen at −78° C. until used. Saturation binding reactions were initiated by the addition of membrane preparation (protein concentration of 5 μg/well for human CB2) into wells of a deep well plate containing ([^3H]CP-55,940 (120 Ci/mmol, a nonselective CB agonist commercially available from Tocris) in assay buffer (50 mM Tris, 2.5 mM EDTA, 5 mM MgCl2, and 0.5 mg/mL fatty acid free BSA, pH 7.4). After 90 min incubation at 30° C., binding reaction was terminated by the addition of 300 μL/well of cold assay buffer followed by rapid vacuum filtration through a UniFilter-96 GF/C filter plates (pre-soaked in 1 mg/mL BSA for 2 hours). The bound activity was counted in a TopCount using Microscint-20. Saturation experiments were conducted with twelve concentrations of [^3H]CP-55,940 ranging from 0.01 to 8 nM. Competition experiments were conducted with 0.5 nM [^3H]CP-55,940 and five concentrations of displacing ligands selected from the range of 0.01 nM to 10 μM. The addition of 10 μM unlabeled CP-55,940 (Tocris, Ellisville, Mo.) was used to assess nonspecific binding.

rat CB2 receptors = biological target: T2, rat CB2 receptors (Rattus norvegicus, UniProt Q9QZN9); assay: Rat CB2 radioligand binding assay ([3H]CP-55,940 competition)
T2 construct: expressed in transfected cells; host or cells: HEK293
T2 sequence (Q9QZN9 1-360): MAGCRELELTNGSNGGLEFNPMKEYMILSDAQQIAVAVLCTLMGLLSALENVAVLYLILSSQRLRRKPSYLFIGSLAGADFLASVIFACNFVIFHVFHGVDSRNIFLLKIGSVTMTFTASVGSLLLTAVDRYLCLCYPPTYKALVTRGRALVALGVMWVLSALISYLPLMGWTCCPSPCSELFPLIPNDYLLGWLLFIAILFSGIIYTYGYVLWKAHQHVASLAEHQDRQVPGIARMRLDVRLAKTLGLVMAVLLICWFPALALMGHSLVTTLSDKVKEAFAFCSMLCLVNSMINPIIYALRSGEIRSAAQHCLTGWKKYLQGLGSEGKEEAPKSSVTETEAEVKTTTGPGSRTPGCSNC
Description: as §1, with “expressing rat” for “expressing human”, “of 20” for “of 5”, “for rat” for “for human”, “containing [^3H]CP-55,940” for “containing ([^3H]CP-55,940”, “After 45” for “After 90”, “[…]” for “10 μM.”

[1] = HEK293 membranes, 0.5 nM [3H]CP-55,940, read-out: human CB2 Ki

T1 sequence (P34972 whole entry): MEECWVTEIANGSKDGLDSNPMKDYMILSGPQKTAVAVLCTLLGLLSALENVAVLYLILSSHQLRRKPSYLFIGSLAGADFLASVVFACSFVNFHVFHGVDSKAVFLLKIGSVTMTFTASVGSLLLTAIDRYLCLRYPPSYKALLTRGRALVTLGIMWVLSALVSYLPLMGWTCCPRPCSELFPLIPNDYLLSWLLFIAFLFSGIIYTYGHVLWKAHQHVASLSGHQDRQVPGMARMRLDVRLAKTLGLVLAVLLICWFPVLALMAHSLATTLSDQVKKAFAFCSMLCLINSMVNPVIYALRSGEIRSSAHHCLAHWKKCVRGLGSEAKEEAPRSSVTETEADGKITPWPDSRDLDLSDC

| SMILES | Ki (human CB2 receptors) [µM] | Ki (rat CB2 receptors) [µM] | Ki (human CB2 receptors; [1]) [µM] |
| --- | --- | --- | --- |
| COc1ccc(C(F)(F)F)cc1C(=O)/N=c1\cc(C(C)(C)C)n(C)n1CC1CC[C@@H](C)O1 (mixture of isomers) [Example 64, N-((3E)-5-tert-butyl-1-methyl-2-{[(5R)-5-methyltetrahydrofuran-2-yl]methyl}-1,2-dihydro-3H-pyrazol-3-ylidene)-2-methoxy-5-(trifluoromethyl)benzamide] | 0.03 | 0.0062 | – |
| COc1ccc(Cl)cc1C(=O)/N=c1\sc(C2(C(F)(F)F)CC2)nn1C[C@H]1CCCO1 [Example 1, 5-chloro-2-methoxy-N-[(2Z)-3-[(2R)-tetrahydrofuran-2-ylmethyl]-5-[1-(trifluoromethyl)cyclopropyl]-1,3,4-thiadiazol-2(3H)-ylidene]benzamide] | 0.051 | 0.0029 | – |
| COc1ccc(Cl)cc1C(=O)/N=c1\sc(C2CC2)nn1CC1CCCO1 (centres unmarked) [Example 2, 5-chloro-N-[(2Z)-5-cyclopropyl-3-(tetrahydrofuran-2-ylmethyl)-1,3,4-thiadiazol-2(3 H)-ylidene]-2-methoxybenzamide] | 0.017 | 0.012 | – |
| CCOc1ccccc1C(=O)/N=c1\sc(C2CC2)nn1CC1CCCO1 (centres unmarked) [Example 3, N-[(2Z)-5-cyclopropyl-3-(tetrahydrofuran-2-ylmethyl)-1,3,4-thiadiazol-2(3H)-ylidene]-2-ethoxybenzamide] | – | 0.071 | 0.114 |
| COc1ccc(Cl)cc1C(=O)/N=c1\sc(C(C)(C)C)nn1C[C@H]1CCCO1 [Example 4, N-[(2Z)-5-tert-butyl-3-[(2R)-tetrahydrofuran-2-ylmethyl]-1,3,4-thiadiazol-2(3 H)-ylidene]-5-chloro-2-methoxybenzamide] | 0.0069 | 0.0012 | – |
| COc1ccc(Cl)cc1C(=O)/N=c1\sc(C2(C)CC2)nn1C[C@H]1CCCO1 [Example 5, 5-chloro-2-methoxy-N-[(2Z)-5-(1-methylcyclopropyl)-3-[(2R)-tetrahydrofuran-2-ylmethyl]-1,3,4-thiadiazol-2(3H)-ylidene]benzamide] | 0.0091 | 0.0009 | – |
| C#CC(C)(C)c1nn(C[C@H]2CCCO2)/c(=N/C(=O)c2cc(Cl)ccc2OC)s1 [Example 6, 5-chloro-N-[(2Z)-5-(1,1-dimethylprop-2-ynyl)-3-[(2R)-tetrahydrofuran-2-ylmethyl]-1,3,4-thiadiazol-2(3H)-ylidene]-2-methoxybenzamide] | 0.02 | 0.0033 | – |
| COc1ccc(Cl)cc1C(=O)/N=c1\sc(C2(C)CC(F)(F)C2(F)F)nn1C[C@H]1CCCO1 (some centres unmarked) [Example 7, 5-chloro-2-methoxy-N-[(2Z)-5-(2,2,3,3-tetrafluoro-1-methylcyclobutyl)-3-[(2 R)-tetrahydrofuran-2-ylmethyl]-1,3,4-thiadiazol-2(3H)-ylidene]benzamide] | 0.038 | 0.0016 | – |
| COc1ccc(Cl)cc1C(=O)/N=c1\sc(C2(C(F)(F)F)CCC2)nn1C[C@H]1CCCO1 [Example 8, 5-chloro-2-methoxy-N-[(2Z)-3-[(2R)-tetrahydrofuran-2-ylmethyl]-5-[1-(trifluoromethyl)cyclobutyl]-1,3,4-thiadiazol-2(3H)-ylidene]benzamide] | – | 0.0008 | – |
| COc1ccc(Cl)cc1C(=O)/N=c1\sc(C(C)(C)C(F)(F)F)nn1C[C@H]1CCCO1 [Example 9, 5-chloro-2-methoxy-N-[(2Z)-3-[(2R)-tetrahydrofuran-2-ylmethyl]-5-(2,2,2-trifluoro-1,1-dimethylethyl)-1,3,4-thiadiazol-2(3H)-ylidene]benzamide] | 0.033 | 0.0014 | – |
| COc1ccc(Cl)cc1C(=O)/N=c1\ccc(C)cn1CC1CCCO1 (centres unmarked) [Example 10, 5-chloro-2-methoxy-N-[(2E)-5-methyl-1-(tetrahydrofuran-2-ylmethyl)pyridin-2(1 H)-ylidene]benzamide] | – | – | 0.36 |
| COc1ccc(Cl)cc1C(=O)/N=c1\cc(C(C)(C)C)on1C[C@H]1CCCO1 [Example 11, N-[(3E)-5-tert-butyl-2-[(2R)-tetrahydrofuran-2-ylmethyl]isoxazol-3(2H)-ylidene]-5-chloro-2-methoxybenzamide] | 0.0048 | 0.0026 | – |
| COc1ccc(Cl)cc1C(=O)/N=c1\oc(C(C)(C)C)cn1C[C@H]1CCCO1 [Example 13, N-[(2Z)-5-tert-butyl-3-[(2R)-tetrahydrofuran-2-ylmethyl]-1,3-oxazol-2(3H)-ylidene]-5-chloro-2-methoxybenzamide] | 0.0048 | 0.0019 | – |
| CCOc1ccc(C(F)(F)F)cc1C(=O)/N=c1\cc(C(C)(C)C)n(C)n1C[C@H]1CCCO1 [Example 14, N-{(3E)-5-tert-butyl-1-methyl-2-[(2R)-tetrahydrofuran-2-ylmethyl]-1,2-dihydro-3H-pyrazol-3-ylidene}-2-ethoxy-5-(trifluoromethyl)benzamide] | 0.035 | 0.024 | – |
| Cn1c(C(C)(C)C)c/c(=N\C(=O)c2cccc(S(F)(F)(F)(F)F)c2)n1C[C@H]1CCCO1 [Example 15, N-{(3E)-5-tert-butyl-1-methyl-2-[(2R)-tetrahydrofuran-2-ylmethyl]-1,2-dihydro-3H-pyrazol-3-ylidene}-3-(pentafluoro-lambda˜6˜sulfanyl)benzamide] | 0.0028 | 0.0012 | – |
| Cn1c(C(C)(C)C)c/c(=N\C(=O)c2cc(C(F)(F)F)ccc2OC[C@H]2C[C@@H](O)C2)n1C[C@H]1CCCO1 [Example 16, N-{(3E)-5-tert-butyl-1-methyl-2-[(2R)-tetrahydrofuran-2-ylmethyl]-1,2-dihydro-3H-pyrazol-3-ylidene}-2-[(cis-3-hydroxycyclobutyl)methoxy]-5-(trifluoromethyl)benzamide] | 0.147 | 0.084 | – |
| Cn1c(C(C)(C)C)c/c(=N\C(=O)c2cc(C(F)(F)F)ccc2OCC2CC(=O)C2)n1C[C@H]1CCCO1 [Example 17, N-{(3E)-5-tert-butyl-1-methyl-2-[(2R)-tetrahydrofuran-2-ylmethyl]-1,2-dihydro-3H-pyrazol-3-ylidene}-2-[(3-oxocyclobutyl)methoxy]-5-(trifluoromethyl)benzamide] | – | 0.058 | 0.23 |
| CO[C@H]1C[C@@H](COc2ccc(C(F)(F)F)cc2C(=O)/N=c2\cc(C(C)(C)C)n(C)n2C[C@H]2CCCO2)C1 [Example 18] | 0.051 | 0.099 | – |
| Cn1c(C(C)(C)C)c/c(=N\C(=O)c2cc(C(F)(F)F)ccc2OCC2CC(F)(F)C2)n1C[C@H]1CCCO1 [Example 19, N-{(3E)-5-tert-butyl-1-methyl-2-[(2R)-tetrahydrofuran-2-ylmethyl]-1,2-dihydro-3H-pyrazol-3-ylidene}-2-[(3,3-difluorocyclobutyl)methoxy]-5-(trifluoromethyl)benzamide] | 0.022 | 0.011 | – |
| COC(C)(C)CCOc1ccc(C(F)(F)F)cc1C(=O)/N=c1\cc(C(C)(C)C)n(C)n1C[C@H]1CCCO1 [Example 20, N-{(3E)-5-tert-butyl-1-methyl-2-[(2R)-tetrahydrofuran-2-ylmethyl]-1,2-dihydro-3H-pyrazol-3-ylidene}-2-(3-methoxy-3-methylbutoxy)-5-(trifluoromethyl)benzamide] | 0.025 | 0.023 | – |
